Laboratory results published in patent publication US20020086860A1, “[1,4]Diazepino [6,7,1-jk] carbazoles and derivatives” (American Home Products Corporation, priority 2000, published 2002).
Structures can show the parent of a compound that is named as a salt. Where two headings read alike, the source gives them in different places.

Tests used:
[1] = tested on: male Sprague-Dawley rats; assay: Effects of Compounds on Feeding Behavior in Rats (food intake, 24 hr fast); format: in vivo; conditions: Rattus norvegicus, ip, dose giving 50% reduction in food intake, read-out: ED50 (mg/kg), 5HT2C Food Intake in Rats
Experimental: Effects of Compounds on Feeding Behavior in Rats
Eight (8) male Sprague-Dawley rats weighing 150-180 g were separated into individual cages and acclimated to a powdered diet for 2 weeks. During this period and throughout the test procedure, the food cup and the animals were weighed daily. Following the acclimation period, animals were fasted for 24 hours and then injected with either vehicle or one of 4 doses of the test compound. Food intake was assessed at 2 and 24 hours following compound administration. Compounds to be evaluated were injected 1-2× per week until all animals had received all doses of the test compound. The order of doses were chosen using to a modified Latin Square design. Additional studies may be conducted in satieted rats at the start of the dark cycle. Compounds were injected i.p, s.c. or p.o. At the end of the study effects of the test compound on food intake was evaluated using a repeated measures ANOVA. Data were collected were 2 hour food intake (g). Data were subjected to one-way ANOVA with posthoc t-tests to assess group differences. Where appropriate, ED50 values were calculated.

[2] = biological target: T1, human 5-HT2C receptor (Homo sapiens, UniProt P28335); assay: Stimulation of [3H] Inositol Monophosphate production by 5HT2C agonists in transfected CHO cells; conditions: for Emax: CHO, read-out: 5HT2C % Emax (5HT, 100%)
T1 sequence (P28335 33-458): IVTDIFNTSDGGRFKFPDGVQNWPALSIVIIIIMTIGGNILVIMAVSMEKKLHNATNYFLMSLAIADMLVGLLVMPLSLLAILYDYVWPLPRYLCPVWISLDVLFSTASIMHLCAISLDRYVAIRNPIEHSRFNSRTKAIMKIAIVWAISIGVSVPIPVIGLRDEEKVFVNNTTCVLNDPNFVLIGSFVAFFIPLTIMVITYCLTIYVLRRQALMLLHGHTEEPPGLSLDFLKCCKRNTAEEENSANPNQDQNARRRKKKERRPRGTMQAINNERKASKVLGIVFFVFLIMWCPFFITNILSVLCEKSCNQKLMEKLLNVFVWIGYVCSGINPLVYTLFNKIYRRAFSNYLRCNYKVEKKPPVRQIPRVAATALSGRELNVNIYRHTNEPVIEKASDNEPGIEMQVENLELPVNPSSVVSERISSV
Experimental: One (1) ml of maintenance medium containing 1 μCi/ml myo-[^3H] inositol was added to each well. After 48 hours labeling, the cells were washed once with 0.5 ml DMEM containing 25 mM HEPES and 10 mM LiCl, then preincubated with the medium for 30 min (antagonists were included in this period if tested). At the end of the preincubation, the medium was removed, the cells were then incubated with test compounds (in presence of antagonists if needed) for 30 min. The reaction was terminated by removal of the incubation solution and addition of 0.5 ml ice-cold 5% PCA, followed by 15 to 30 min incubation on ice. 200 μl of 0.5 M Tes/1.5 M K2CO3 was added to each well to neutralize to pH 7, and plates were left on ice for another 15 to 30 min to precipitate all salts. The liquid and solid phases were separated by centrifugation.
A portion (350 μl) of the upper aqueous phase was applied to Dowex AG-1×8 (formate form, 100-200 mesh) columns. The columns were then washed stepwise with 10 ml of water and 10 ml of 25 mM ammonium formate to remove free myo-[^3H]inositol and deacylated phosphoinositol, respectively. Finally 10 ml of 0.2 M ammonium formate solution was applied to the columns to elute [^3H] inositol monophosphate ([^3H] IP1) directly into scintillation vials. Of this eluate, 1 ml was used to determine radioactivity by scintillation counting.
A 3-parameter logistic function is used to generate estimate of EC50/IC50.

[3] = biological target: T2, human 5-hydroxytryptamine2C (h5HT2C) receptor (Homo sapiens, UniProt P28335); assay: 5HT2C Receptor Binding Test Procedure ([125I]DOI displacement, CHO cell membranes)
T2 construct: expressed in transfected cells; host or cells: CHO (Chinese Hamster Ovary) cells; membrane preparation
T2 sequence (P28335 33-458): T1 sequence (P28335 33-458)

[4] = tested on: several animal species and humans; conditions: Cowen et al. 1995; cited from earlier work
[5] = read-out: Ki value and 95% confidence interval (reference compounds)

With c1cc2c3c(c1)C1CCCCC1N3CCNC2 (centres unmarked) (as salt: hydrochloride) [Example 2, 1,2,3,4,7b,8,9,10,11,11a-Decahydro-[1,4]diazepino[6,7,1-jk]carbazole] the melting point was 265 to 269 °C.
c1cc2c3c(c1)c1c(n3CCNC2)CCCC1 [Example 1, 1,2,3,4,8,9,10,11-Octahydro-[1,4]diazepino[6,5,4-jk]carbazole] gave an ED50 [1] of 20.9 mg/kg, an EC50 [2] of 426 nM and an Emax [2] of 90%.
In the case of c1cc2c3c(c1)C1CCCCC1N3CCNC2 (centres unmarked) [Example 2, 1,2,3,4,7b,8,9,10,11,11a-Decahydro-[1,4]diazepino[6,7,1-jk]carbazole], the Ki [3] is reported as 92 nM, the EC50 [2] is reported as 207 nM and the Emax [2] is reported as 70%.
With CC1(C)Cc2c(c3cccc4c3n2CCNC4)C(C)(C)C1 [Example 3, 8,8,10,10-Tetramethyl-1,2,3,4,8,9,10,11-octahydro[1,4]diazepino[6,7,1-jk]carbazole] the Ki [3] was 73 nM.
With CC1(C)CCc2c(c3cccc4c3n2CCNC4)C1 [Example 4, 9,9,Dimethyl-1,2,3,4,8,9,10,11-octahydro[1,4]diazepino[6,7,1-jk]carbazole] the Ki [3] was 243 nM.
In the case of Clc1cc2c3c(c1)c1c(n3CCNC2)CCCC1 [Example 5, 6-Chloro-1,2,3,4,8,9,10,11-octahydro[1,4]diazepino[6,7,1-jk]cabazole], the Ki [3] is reported as 358 nM.
For CCN1CCn2c3c(c4cc(Cl)cc(c42)C1)CCCC3 [Example 9, 6-Chloro-3-ethyl-1,2,3,4,8,9,10,11-octahydro[1,4]diazepino[6,5,4-jk]carbazole], the “5HT2C Affinity DOI/Agonist binding, inhibition @ 1 μM” value [3] was 55%.
In the case of CN1CCN(C2=Nc3ccccc3Oc3ccc(Cl)cc32)CC1 [Loxapine], the Ki [3, 5] is reported as 33 nM.
CSc1ccc2c(c1)C(N1CCN(C)CC1)Cc1ccccc1S2 (centres unmarked) [Methiothepin] showed a Ki ([3]; [125I]DOI binding, h5HT2C in CHO membranes, 95% confidence interval in brackets, read-out: Ki value and 95% confidence interval (reference compounds)) of 4.6 nM.
Work on CC[C@@H](CO)NC(=O)[C@@H]1C=C2c3cccc4c3c(cn4C)C[C@H]2N(C)C1 [Methysergide] yielded a Ki [3] of 6.3 nM.
Cc1nc2sccn2c(=O)c1CCN1CCC(=C(c2ccc(F)cc2)c2ccc(F)cc2)CC1 [Ritanserin] gave a Ki [3, 5] of 2 nM.
With COc1cc(CC(C)N)c(OC)cc1I (centres unmarked) [[^125I] DOI] the Kd ([3]; read-out: dissociation constant, KD of [125I] DOI at the human serotonin 5HT2C receptor, saturation binding with increasing concentrations of [125I] DOI) was 0.4 nM.
For Clc1cccc(N2CCNCC2)c1 [mCPP, meta-chlorophenylpiperazine], the “effect on food intake” value [4] is given as “decreases food intake”.
